Assay results published in patent US20180021315A1, “METHODS OF TREATING HEARING DISORDERS” (Wayne State University, priority 2016, published 2018).
“Also recorded” adds a separate entry of the source. Where two headings read alike, the source gives them in different places.

How the values were obtained:
TNF-α = details: has been shown; cited from earlier work
WT and KO mice = details: systemic salicylate injection, FIGS. 5C-5D
Method: To assess an animal's ability to perform an auditory task, separate from its ability to detect a silent gap, the pre-pulse inhibition (PPI) task was administered to a subset of the mice before and after NIHL. The physical setup for the PPI task was identical to that of the gap detection. However, the trial structure differed in that carrier tone was absent and a white noise burst was cued by a 50-ms pure tone pulse (frequency pseudo-randomly selected from 5, 7, 10, 14, 20, 28, or 45 kHz, all at 75 dB SPL). In short, the PPI task tests an animal's ability to detect a pure tone pulse in silence, while the gap detection task measures an animal's ability to detect a silent gap in a continuous pure tone.

[1] = system: wildtype and TNF-α KO mice
Method: Tinnitus was assessed using the gap detection paradigm. The gap detection task measures the acoustic startle response elicited by a brief white noise pulse and its suppression by a preceding silent gap embedded in a background sound. […] Mice were placed in a small box, which rested atop a piezoelectric sensor within a sound attenuation chamber. Sounds were played through an open field speaker (FOSTEX FT17H) fixed above the small box. Each trial began with a carrier pure tone (frequency pseudo-randomly selected from 5, 7, 10, 14, 20, 28, or 45 kHz, all at 75 dB SPL), played for 10-20 s. In uncued trials, the carrier tone was followed by a startle stimulus—a 50 ms white noise burst at 102 dB SPL. In cued trials, the startle stimulus was preceded by a 50 ms silence, 100 ms prior to its onset. In each testing session, the animal performed a total of 500 trials (50% cued and 50% uncued). After each session, the startle response ratio was calculated, which is defined as the average startle amplitude to the cued trials divided by the average amplitude of the uncued trials. The startle response ratio signifies a silent-gap induced reduction of the startle response. For example, a startle response ratio of 0.6 indicates a 40% reduction of the startle amplitude for the cued trials.

C57BL/6 mice = assay: Noise-induced tinnitus (NIHL), gap detection task, thalidomide treatment; format: in vivo, mouse; details: 100 mg/kg IP daily for three days after noise exposure, FIG. 9
Method: All experimental procedures were reviewed and approved by UC Berkeley Animal Care and Use Committee. TNF-α knockout (KO) mice and corresponding C75Bl/6 wild-type (WT) mice were originally purchased from the Jackson Laboratory and were bred in a UC Berkeley animal facility. Animals were anesthetized with ketamine (100 mg/kg, IP) and xylazine (10 mg/kg, IP) and maintained at 36.5° C. with a homeothermic heating pad (Harvard Apparatus). Unilateral noise-induced hearing loss (NIHL) experiments were performed in a sound attenuation chamber by playing a continuous pure tone of 8 kHz at 112 dB SPL through a calibrated custom-made piezo earphone speaker to the left ear of the mouse for 2 hours, while the right ear was protected with sound attenuating clay. The sound level was calibrated with a Bruel and Kjaer 4135 condenser microphone (Nærum, Denmark) before and after the NIHL.
Tinnitus was assessed using the gap detection paradigm.
Eight C57BL/6 mice were tested with the gap detection task, described above, before and after undergoing NIHL. […] Afterward, animals received daily injection of 100 mg/kg (IP) thalidomide for three days and were tested for tinnitus.

blast-exposed rats [2] = assay: Blast-induced tinnitus, gap detection, thalidomide treatment; format: in vivo, rat; details: injected daily for 5 days, FIG. 8C
Method: A rat model of blast-induced tinnitus was developed to investigate the role of TNF-α in a traumatic brain injury (TBI) blast exposure induced tinnitus. Rats were anesthetized with isoflurane (0.75-1% in a 2:1 N2O:O2 gas mixture), placed on supportive netting, and secured with a locking device. All animals had one ear occluded with an earplug before they were blast-exposed in a shock-tube assembly (ORA, Inc.).
Behavioral evidence of blast-induced tinnitus was tested using a gap detection test as described above. […] Blast-exposed rats also spent less time in, and made fewer entries into, the open arms of an elevated plus maze (FIG. 7C), showing a higher anxiety level. The results are consistent with findings in blast-exposed humans and indicate that the blast model is suitable for studying mechanisms and treatment of blast-induced tinnitus and anxiety.

[3] = 5 mg/kg, I.P. route; cited from earlier work
blast-exposed rats [4] = assay: Blast-induced tinnitus, gap ratio, etanercept; format: in vivo, rat; details: for gap ratio values (gap/startle-only response), therapeutic effect on tinnitus: FIG. 29
Method: Each of the rats was subjected to blast exposure in the left ear using a shock tube (ORA Inc.) located at the Wayne State University Bioengineering Center. The blast exposure of each rat was performed under anesthesia with a mixture of air (1 liter/min) and isoflurane (5% v/v). The rat was placed on supportive netting with a metal surround and secured on a pole with its head facing the oncoming shockwave. During blast exposure, the rat's right ear was occluded with a silicone earplug (Mack's; McKeon Products, Warren, Mich.), followed by application of mineral oil to seal any remaining openings. The average energy under 10 kHz measured at 22 psi was equivalent to 150 kPa or 197.5 dB SPL. After blast exposure, each rat was transferred to a polycarbonate cage.
Thirty two rats from Example 10 were used. Behavioral tinnitus testing, including gap detection and PPI testing, was conducted with Hamilton-Kinder startle-reflex hardware and software. During behavioral testing, each rat was placed in an individual noise-attenuation chamber to perform gap and PPI testing. In the gap procedure, each rat was presented with a constant 60-dB SPL background noise composed of 2,000 Hz bandpass signals at 6-8, 10-12, 14-16, 18-20, or 26-28 kHz or broadband noise (BBN; 2-30 kHz). A 115 dB SPL, 50 ms noise-burst was used as the startle stimulus to induce the acoustic startle reflex. The background noise session contained two conditions, one condition was the startle only condition in which rat was presented with the startle stimulus alone, and the other condition was the gap condition in which a rat was presented with a startle stimulus preceded by a silent gap embedded within the background noise. Silent gaps were 40 ms in duration with a lead interval of 90 ms to the startle stimulus. The startle reflex of rats was measured in response to 3 conditions: 1) background noise alone, 2) startle only, and 3) gap. […] The startle amplitude of rats in response to the two conditions was measured: the startle-only condition and a prepulse followed by the startle stimulus. […]

Molecule: O=C(O)c1ccccc1O [salicylate]
- TNF-α expression in the inferior colliculus (TNF-α): increase TNF-α expression in the inferior colliculus
- PPI performance (WT and KO mice): affected PPI performance in WT but not KO mice
- behavioral manifestation of tinnitus (gap detection) ([1]; TNF-α KO mice, same dose 300 mg/kg, FIG. 5B): did not show tinnitus
- behavioral manifestation of tinnitus (gap detection) ([1]; wildtype mice, systemic injection 300 mg/kg, 30 min later, FIG. 5A): resulted in robust behavioral manifestation of tinnitus

Molecule: O=C1CCC(N2C(=O)c3ccccc3C2=O)C(=O)N1 (stereo not shown) [thalidomide]
- gap detection performance after NIHL (C57BL/6 mice): dramatically improved gap detection performance over a wide frequency range, completely reversing the impairment
- blast-induced tinnitus (gap detection) (blast-exposed rats [2]): Significant suppression of tinnitus; also recorded: significantly suppressed

Molecule: etanercept
- effect on TBI [3]: attenuates TBI
- gap ratio values (gap/startle-only response), therapeutic effect on tinnitus (blast-exposed rats [4]; 5 mg/kg i.p. daily for 5 days from 1 day after blast, low frequencies and 28 kHz, two-week and three-week timepoints): significant therapeutic effect on tinnitus
- gap ratio values (gap/startle-only response), therapeutic effect on tinnitus (blast-exposed rats [4]; 5 mg/kg i.p. daily for 5 days, one-day and one-week timepoints): less pronounced
- onset of therapeutic effect relative to 3,6′-dithiothalidomide (blast-exposed rats [4]; compare FIG. 29 with FIG. 15A): delayed therapeutic effect
